Measured values taken from patent US20260174671A1, “COMPOSITION FOR ALLEVIATING OR PREVENTING SYMPTOMS OF ALLERGIC RHINITIS OR ALLERGIC CONJUNCTIVITIS” (Nissui Corporation, priority 2022, published 2026).

Legend:
[1] = system: atopic dermatitis model mice; settings: PTL 4, cited from earlier work
[2] = system: splenocytes from the model mice; settings: PTL 4; cited from earlier work
[3] = system: adult males and females who had experienced nasal and/or eye discomfort due to pollen; experiment: Severity classification of allergic rhinitis symptoms, placebo-controlled intake test during the pollen season; assay type: in vivo, human
From the text: The severity classification of allergic rhinitis symptoms refers to a method of classifying the severity based on Practical Guideline for the Management of Allergic Rhinitis in Japan 2020 (Committee of the Practical Guideline for the Management of Allergic Rhinitis). Specifically, each evening, the subject himself/herself selects the one that best describes the severity of the day on the subjective symptoms on each item listed in the table below.
The subjects were adult males and females who had experienced nasal and/or eye discomfort due to pollen for the past 2 years.
The remaining 36 subjects were randomized and divided into a DGLA administration group (intervention group; hereinafter referred to as DGLA group) with 18 subjects and a placebo administration group (control group; hereinafter referred to as placebo group) with 18 subjects. 3 subjects in the placebo group became untraceable during the testing. Therefore, the analysis was performed on 18 subjects in the DGLA group and 15 subjects in the placebo group.
The DGLA group: DGLA-containing oil (DGLA of 31.4% by weight) was taken at 1,000 mg/day for 15 weeks. The DGLA of 314 mg/day is to be taken in terms of free fatty acid. The DGLA-containing oil was obtained by the method described in Japanese Patent No. 3354581. Specifically, to 200 g of dry cells of a filamentous fungus (Mortierella alpina), 500 mL of hexane was added, the mixture was stirred, and the filtration was repeated three times to extract oil, and then the hexane layer was evaporated to obtain DGLA-containing oil. The subjects took 4 capsules filled with this oil per day.
The intake duration of the diet for testing was 15 weeks from January 8th to Apr. 23, 2022. […]
(§1) The mean±SD of the change in score from the start of the testing was calculated for each group at each time point, and statistical analysis was conducted. […]

[4] = system: adult males and females who had experienced nasal and/or eye discomfort due to pollen; experiment: Japanese Allergic Rhinitis Standard Quality of Life Questionnaire (JRQLQ), placebo-controlled intake test during the pollen season; assay type: in vivo, human
From the text: The JRQLQ is a questionnaire created by Okuda et al. to assess the impact of allergic rhinitis on quality of life (QOL) (Minoru Okuda et al.: Japanese Rhino-conjunctivitis Quality-of-Life Questionnaire (2002 edition), Committee of the Japanese Rhino-conjunctivitis Quality-of-Life Questionnaire, Allergy 2003; 52:21-56). […] In the JRQLQ, the subject himself/herself selects the one that best describes the severity of the worst nasal and eye symptoms the subject has experienced in the past 1-2 weeks on the items listed in the table below.
Also, as shown in Examples to be described later, the composition of the present invention can reduce the scores of nasal and eye symptoms in the JRQLQ, in particular, or suppress the increase of the score, compared to the placebo group. In the present invention, the phrase the “score of nasal and eye symptoms in the JRQLQ” means the sum of the scores of runny nose, sneezing, blocked nose, itchy nose, itchy eyes, and watery eyes in the JRQLQ. In a preferred embodiment of the present invention, the composition of the present invention can be used for reducing the scores of nasal and eye symptoms in the JRQLQ, or suppressing the increase of the score, compared to the placebo group. […]
as §1

dermatitis model animals = settings: intake of DGLA; PTL 2; cited from earlier work

Compound: CCCCC/C=C\C/C=C\C/C=C\CCCCC(=O)O [GLA, γ-linolenic acid]
- IgE production ([1]; orally administered for two months, atopic dermatitis-affected mice with hyper IgE-emia): suppression of IgE production was not observed
- IgE production in vitro [2]: suppressed IgE production

Compound: CCCCCC=CCC=CCC=CCCCCCCC(=O)O [DGLA, 8,11,14-eicosatrienoic acid]
- sneezing attack score in the severity classification of allergic rhinitis symptoms, change from the start of testing (week 0) ([3]; DGLA group (n=18) vs placebo group (n=15), DGLA-containing oil 1,000 mg/day (DGLA 314 mg/day) oral, 15 weeks, p<0.01, FIG. 1): significantly reduced
- nasal congestion score in the severity classification of allergic rhinitis symptoms, change from the start of testing (week 0) ([3]; DGLA group (n=18) vs placebo group (n=15), DGLA-containing oil 1,000 mg/day (DGLA 314 mg/day) oral, 15 weeks, p<0.05, FIG. 2): significantly reduced
- stratification analysis of the DGLA group, severity classification items (sneezing attack, nasal discharge, nasal congestion, itchy eyes, tearing) ([3]; Group H (score 1 or higher at week 0) vs Group L (score 0), no significant difference, P=0.249-0.712, FIGS. 4 to 8): all the mean values for the items of Group H were lower than those of Group L
- JRQLQ nasal and eye symptom score (sum of runny nose, sneezing, blocked nose, itchy nose, itchy eyes, watery eyes), change from week 0 ([4]; DGLA group (n=18) vs placebo group (n=15), DGLA-containing oil 1,000 mg/day (DGLA 314 mg/day) oral, 15 weeks, p<0.1, FIG. 3): tended to be reduced
- stratification analysis of the DGLA group, JRQLQ items (runny nose, sneezing, blocked nose, itchy nose, itchy eyes, watery eyes) ([4]; Group H (score 1 or higher at week 0) vs Group L (score 0), no significant difference, P=0.084-0.59, FIGS. 9 to 14): all the mean values for the items of Group H were lower than those of Group L
- dermatitis (dermatitis model animals): suppresses dermatitis

Compound: CCCCC/C=C\C/C=C\C/C=C\CCCCC(=O)OCC [γ-linolenic acid (GLA) ethyl ester]
- hyper IgE production ([1]; oral administration, atopic dermatitis model mice): suppressed hyper IgE production
